Columns and labels:
[1] = system: Escherichia coli; test: Inhibition of biofilm formation in Escherichia coli TG1 at 25 degree C measured after 24 hrs by crystal violet staining based microplate reader analysis; format: functional, organism-based; conditions: TG1, 24 h
[2] = system: Escherichia coli; test: Antibacterial activity against Escherichia coli TG1 at 25 degree C measured after 24 hrs by crystal violet staining based microplate reader analysis; format: functional, organism-based; conditions: TG1, 24 h
[3] = system: Pseudomonas aeruginosa; test: Inhibition of biofilm formation in Pseudomonas aeruginosa PA14 at 25 degree C measured after 24 hrs by crystal violet staining based analysis; format: functional, organism-based; conditions: PA14, 24 h
[4] = system: Pseudomonas aeruginosa; test: Antibacterial activity against Pseudomonas aeruginosa PA14 at 25 degree C measured after 24 hrs by crystal violet staining based microplate reader analysis; format: functional, organism-based; conditions: PA14, 24 h
[5] = system: Staphylococcus aureus; test: Inhibition of biofilm formation in Staphylococcus aureus SH1000 at 25 degree C measured after 48 hrs by crystal violet staining based analysis; format: functional, organism-based; conditions: SH1000, 48 h
[6] = system: Staphylococcus aureus; test: Antibacterial activity against Staphylococcus aureus SH1000 at 25 degree C measured after 48 hrs by crystal violet staining based microplate reader analysis; format: functional, organism-based; conditions: SH1000, 48 h
[7] = system: Staphylococcus epidermidis; test: Inhibition of biofilm formation in Staphylococcus epidermidis at 25 degree C measured after 48 hrs by crystal violet staining based analysis; format: functional, organism-based
[8] = system: Staphylococcus aureus; test: Inhibition of biofilm formation in methicillin-resistant Staphylococcus aureus at 25 degree C measured after 48 hrs by crystal violet staining based analysis; format: functional, organism-based
[9] = system: Staphylococcus aureus; test: Antibacterial activity against methicillin-resistant Staphylococcus aureus at 25 degree C measured after 48 hrs by crystal violet staining based microplate reader analysis; format: functional, organism-based
[10] = Cytotoxicity against human PBMC cells assessed as survival rate at 25 to 100 uM measured after 72 hrs by trypan blue staining based assay; format: toxicity, cell-based; conditions: dose 25-100 µM
[11] = Cytotoxicity against human PBMC cells assessed as survival rate at 400 uM measured after 72 hrs by trypan blue staining based assay (reference value: 48%); format: toxicity, cell-based; conditions: read-out: Survival
[12] = Genotoxicity in human CAPAN-1 cells at 100 to 400 uM measured after 3 hrs by Western blot analysis; format: toxicity, cell-based; conditions: capan-1, 3 h, dose 100-400 µM
[13] = system: Staphylococcus epidermidis; test: Antibacterial activity against Staphylococcus epidermidis at 25 degree C measured after 48 hrs by crystal violet staining based microplate reader analysis; format: functional, organism-based
[14] = Cytotoxicity against human PBMC cells assessed as survival rate at 100 uM measured after 72 hrs by trypan blue staining based assay relative to control; format: toxicity, cell-based; conditions: read-out: Survival
[15] = Cytotoxicity against human PBMC cells assessed as survival rate at 400 uM measured after 72 hrs by trypan blue staining based assay relative to control; format: toxicity, cell-based; conditions: read-out: Survival
[16] = Cytotoxicity against human PBMC cells assessed as survival rate at 25 uM measured after 72 hrs by trypan blue staining based assay (reference value: 94.0%); format: toxicity, cell-based; conditions: read-out: Survival

| SMILES | IC50 [1] | IC50 [2] | IC50 [3] | IC50 [4] | IC50 [5] | IC50 [6] | IC50 [7] | IC50 [8] | IC50 [9] | Activity [10] | viability at 72 h, 400 µM [11] | Activity [12] | IC50 [13] | viability at 72 h, 100 µM [14] | viability at 72 h, 400 µM [15] | viability at 72 h, 25 µM [16] |
| --- | --- | --- | --- | --- | --- | --- | --- | --- | --- | --- | --- | --- | --- | --- | --- | --- |
| NCCCCNc1ncc(-c2ccccc2)[nH]1 | 35.3 µM | 56.6 µM | 17 µM | 85.8 µM | 155 µM | 287 µM | 33.3 µM | 138 µM | 578 µM | Non-toxic | 9% | Non-toxic |  |  |  |  |
| NCCCCCCNc1ncc(-c2ccccc2)[nH]1 | 26.5 µM | 55.3 µM | 23.4 µM | 73.4 µM | 95.6 µM | 186 µM | 29.2 µM | 62.7 µM | 206 µM |  |  | Non-toxic | 164 µM | 12.9% | 2.9% | 78.6% |

Source: ChEMBL document CHEMBL6115011, “Optimizing biofilm inhibitors: Balancing activity and toxicity in 2N-aminated 5-aryl-2-aminoimidazoles” (Bioorg Med Chem, 2025)
